Measured values: patent publication US20250019387A1 (Frontier Medicines Corporation, priority 0001, published 2025)

Biological target: KRAS G12C and cRAF (Ras-binding domain) interaction (Homo sapiens (Human), UniProt P01116, C118S/C51S/C80L/G12C)
Experiment: Inhibition of KRAS G12C and cRAF binding (AlphaScreen)
Conditions: GMPPNP-loaded KRAS G12C, 19-20 hours incubation with compound; read-out: IC50 (Inhibition of KRAS G12C and cRAF Binding)
How it was run: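 Compounds (DMSO) preincubated 19-20 h at room temperature, then RBD with streptavidin donor and glutathione acceptor beads added in 25 mM Hepes pH 7.4, 150 mM NaCl, 5 mM MgCl2, 0.01% Triton X-100, 2% DMSO for 60-90 min. Emission 570 nm (excitation 680 nm); IC50 by 4-parameter fit. Counter-screen used biotin-AviTag-GST instead of RBD.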

Sequence of KRAS G12C and cRAF (Ras-binding domain) interaction (P01116 other isoform, or with tags, fused parts or gaps G12C/C51S/C80L/C118S): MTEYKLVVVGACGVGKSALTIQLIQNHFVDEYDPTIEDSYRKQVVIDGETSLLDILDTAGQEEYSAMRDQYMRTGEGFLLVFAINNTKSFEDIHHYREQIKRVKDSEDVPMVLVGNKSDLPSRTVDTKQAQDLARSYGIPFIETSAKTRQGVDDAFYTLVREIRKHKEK

SMILES | IC50 [nM]
CN(CC1CN(C(=O)C#CCN2CCOCC2)C1)c1nc(OC[C@@]23CCCN2C[C@H](F)C3)nc2c(F)c(-c3cccc4cccc(Cl)c34)ncc12 [Example 91, 1-(3-(((7-(8-chloronaphthalen-1-yl)-8-fluoro-2-(((2R,7aS)-2-fluorotetrahydro-1H-pyrrolizin-7a(5H)-yl)methoxy)pyrido[4,3-d]pyrimidin-4-yl)(methyl)amino)methyl)azetidin-1-yl)-4-morpholinobut-2-yn-1-one] | 100 to 500
CN(c1nc(OC[C@@]23CCCN2C[C@H](F)C3)nc2c(F)c(-c3cccc4cccc(Cl)c34)ncc12)[C@@H]1CCN(C(=O)C#CCN2CCOCC2)C1 [Example 92, 1-((R)-3-((7-(8-chloronaphthalen-1-yl)-8-fluoro-2-(((2R,7aS)-2-fluorohexahydro-1H-pyrrolizin-7a-yl)methoxy)pyrido[4,3-d]pyrimidin-4-yl)(methyl)amino)pyrrolidin-1-yl)-4-morpholinobut-2-yn-1-one] | > 500
CN(c1nc(OC[C@@]23CCCN2C[C@H](F)C3)nc2c(F)c(-c3cccc4cccc(Cl)c34)ncc12)[C@@H]1CCN(C(=O)/C=C/c2nc(C3(C)COC3)no2)C1 [Example 95, (E)-1-((R)-3-((7-(8-chloronaphthalen-1-yl)-8-fluoro-2-(((2R,7aS)-2-fluorotetrahydro-1H-pyrrolizin-7a(5H)-yl)methoxy)pyrido[4,3-d]pyrimidin-4-yl)(methyl)amino)pyrrolidin-1-yl)-3-(3-(3-methyloxetan-3-yl)-1,2,4-oxadiazol-5-yl)prop-2-en-1-one] | < 10
CN(c1nc(OC[C@@]23CCCN2C[C@H](F)C3)nc2c(F)c(-c3cccc4ccc(F)c(Cl)c34)ncc12)[C@@H]1CCN(C(=O)/C=C/CN2CCOCC2)C1 [Example 96, (E)-1-((R)-3-((7-(8-chloro-7-fluoronaphthalen-1-yl)-8-fluoro-2-(((2R,7aS)-2-fluorotetrahydro-1H-pyrrolizin-7a(5H)-yl)methoxy)pyrido[4,3-d]pyrimidin-4-yl)(methyl)amino)pyrrolidin-1-yl)-4-morpholinobut-2-en-1-one] | 100 to 500
C=CC(=O)N1CC(CN(C)c2nc(OC[C@@]34CCCN3C[C@H](F)C4)nc3c(F)c(-c4cc(O)cc5cccc(Cl)c45)ncc23)C1 [Example 97, 1-(3-(((7-(8-chloro-3-hydroxynaphthalen-1-yl)-8-fluoro-2-(((2R,7aS)-2-fluorotetrahydro-1H-pyrrolizin-7a(5H)-yl)methoxy)pyrido[4,3-d]pyrimidin-4-yl)(methyl)amino)methyl)azetidin-1-yl)prop-2-en-1-one] | < 10
CC(C)c1noc(/C=C/C(=O)N2CC[C@@H](N(C)c3nc(OC[C@@]45CCCN4C[C@H](F)C5)nc4c3CCN(c3cccc5ccc(F)c(Cl)c35)C4)C2)n1 [Example 99, (E)-1-((R)-3-((7-(8-chloro-7-fluoronaphthalen-1-yl)-2-(((2R,7aS)-2-fluorohexahydro-1H-pyrrolizin-7a-yl)methoxy)-5,6,7,8-tetrahydropyrido[3,4-d]pyrimidin-4-yl)(methyl)amino)pyrrolidin-1-yl)-3-(3-isopropyl-1,2,4-oxadiazol-5-yl)prop-2-en-1-one] | 10 to 100
CN(c1nc(OCC23CCCN2CCC3)nc2c(F)c(-c3cccc4cccc(Cl)c34)ncc12)[C@@H]1CCN(C(=O)/C=C/c2nc(C(F)(F)F)no2)C1 [Example 100, (R,E)-1-(3-((7-(8-chloronaphthalen-1-yl)-8-fluoro-2-((tetrahydro-1H-pyrrolizin-7a(5H)-yl)methoxy)pyrido[4,3-d]pyrimidin-4-yl)(methyl)amino)pyrrolidin-1-yl)-3-(3-(trifluoromethyl)-1,2,4-oxadiazol-5-yl)prop-2-en-1-one] | < 10
CN(c1nc(OCC23CCCN2CCC3)nc2c(F)c(-c3cccc4cccc(Cl)c34)ncc12)[C@@H]1CCN(C(=O)/C=C/c2nc(C3(C)CC3)no2)C1 [Example 101, (R,E)-1-(3-((7-(8-chloronaphthalen-1-yl)-8-fluoro-2-((hexahydro-1H-pyrrolizin-7a-yl)methoxy)pyrido[4,3-d]pyrimidin-4-yl)(methyl)amino)pyrrolidin-1-yl)-3-(3-(1-methylcyclopropyl)-1,2,4-oxadiazol-5-yl)prop-2-en-1-one] | < 10
CN(c1nc(OC[C@@]23CCCN2C[C@H](F)C3)nc2c(F)c(-c3cccc4ccc(F)c(Cl)c34)ncc12)[C@@H]1CCN(C(=O)/C=C/C2CCCN2)C1 (stereo partly drawn) [Example 102, (E)-1-((R)-3-((7-(8-chloro-7-fluoronaphthalen-1-yl)-8-fluoro-2-(((2R,7aS)-2-fluorotetrahydro-1H-pyrrolizin-7a(5H)-yl)methoxy)pyrido[4,3-d]pyrimidin-4-yl)(methyl)amino)pyrrolidin-1-yl)-3-(pyrrolidin-2-yl)prop-2-en-1-one] | 10 to 100
CN(c1nc(OC[C@@]23CCCN2C[C@H](F)C3)nc2c(F)c(-c3cccc4ccc(F)c(Cl)c34)ncc12)[C@@H]1CCN(C(=O)/C=C/C2CCN2)C1 (stereo partly drawn) [Example 103, (E)-3-(azetidin-2-yl)-1-((R)-3-((7-(8-chloro-7-fluoronaphthalen-1-yl)-8-fluoro-2-(((2R,7aS)-2-fluorotetrahydro-1H-pyrrolizin-7a(5H)-yl)methoxy)pyrido[4,3-d]pyrimidin-4-yl)(methyl)amino)pyrrolidin-1-yl)prop-2-en-1-one] | 10 to 100
CN(CC1CN(C(=O)/C=C/c2nc(C3CC3)no2)C1)c1nc(OC[C@@]23CCCN2C[C@H](F)C3)nc2c(F)c(-c3cccc4cccc(Cl)c34)ncc12 [Example 104, (E)-1-(3-(((7-(8-chloronaphthalen-1-yl)-8-fluoro-2-(((2R,7aS)-2-fluorotetrahydro-1H-pyrrolizin-7a(5H)-yl)methoxy)pyrido[4,3-d]pyrimidin-4-yl)(methyl)amino)methyl)azetidin-1-yl)-3-(3-cyclopropyl-1,2,4-oxadiazol-5-yl)prop-2-en-1-one] | 100 to 500
CN(CC1CN(C(=O)/C=C/c2nc(C(C)(C)O)no2)C1)c1nc(OC[C@@]23CCCN2C[C@H](F)C3)nc2c(F)c(-c3cccc4cccc(Cl)c34)ncc12 [Example 105, (E)-1-(3-(((7-(8-chloronaphthalen-1-yl)-8-fluoro-2-(((2R,7aS)-2-fluorotetrahydro-1H-pyrrolizin-7a(5H)-yl)methoxy)pyrido[4,3-d]pyrimidin-4-yl)(methyl)amino)methyl)azetidin-1-yl)-3-(3-(2-hydroxypropan-2-yl)-1,2,4-oxadiazol-5-yl)prop-2-en-1-one] | < 10
CC(C)c1noc(/C=C/C(=O)N2CC(CN(C)c3nc(OC[C@@]45CCCN4C[C@H](F)C5)nc4c(F)c(-c5cccc6cccc(Cl)c56)ncc34)C2)n1 [Example 106, (E)-1-(3-(((7-(8-chloronaphthalen-1-yl)-8-fluoro-2-(((2R,7aS)-2-fluorotetrahydro-1H-pyrrolizin-7a(5H)-yl)methoxy)pyrido[4,3-d]pyrimidin-4-yl)(methyl)amino)methyl)azetidin-1-yl)-3-(3-isopropyl-1,2,4-oxadiazol-5-yl)prop-2-en-1-one] | 10 to 100
CN(c1nc(OC[C@@]23CCCN2C[C@H](F)C3)nc2c(F)c(-c3cccc4cccc(Cl)c34)ncc12)[C@@H]1CCN(C(=O)/C=C/c2nc(C(C)(C)O)no2)C1 [Example 107, (E)-1-((R)-3-((7-(8-chloronaphthalen-1-yl)-8-fluoro-2-(((2R,7aS)-2-fluorotetrahydro-1H-pyrrolizin-7a(5H)-yl)methoxy)pyrido[4,3-d]pyrimidin-4-yl)(methyl)amino)pyrrolidin-1-yl)-3-(3-(2-hydroxypropan-2-yl)-1,2,4-oxadiazol-5-yl)prop-2-en-1-one] | < 10
CN(c1nc(OC[C@@]23CCCN2C[C@H](F)C3)nc2c1CCN(c1cccc3cccc(Cl)c13)C2)[C@@H]1CCN(C(=O)/C=C/c2cn(C)cn2)C1 [Example 110, (E)-1-((R)-3-((7-(8-chloronaphthalen-1-yl)-2-(((2R,7aS)-2-fluorohexahydro-1H-pyrrolizin-7a-yl)methoxy)-5,6,7,8-tetrahydropyrido[3,4-d]pyrimidin-4-yl)(methyl)amino)pyrrolidin-1-yl)-3-(1-methyl-1H-imidazol-4-yl)prop-2-en-1-one] | > 500
CN(c1nc(OC[C@@]23CCCN2C[C@H](F)C3)nc2c(F)c(-c3cccc4cccc(Cl)c34)ncc12)[C@@H]1CCN(C(=O)/C=C/c2nc(C3CCC3)no2)C1 [Example 111, (E)-1-((R)-3-((7-(8-chloronaphthalen-1-yl)-8-fluoro-2-(((2R,7aS)-2-fluorohexahydro-1H-pyrrolizin-7a-yl)methoxy)pyrido[4,3-d]pyrimidin-4-yl)(methyl)amino)pyrrolidin-1-yl)-3-(3-cyclobutyl-1,2,4-oxadiazol-5-yl)prop-2-en-1-one] | 10 to 100
CN(c1nc(OC[C@@]23CCCN2C[C@H](F)C3)nc2c1CCN(c1cccc3cccc(Cl)c13)C2)[C@@H]1CCN(C(=O)/C=C/c2nc(C3(C)CC3)no2)C1 [Example 114, (E)-1-((R)-3-((7-(8-chloronaphthalen-1-yl)-2-(((2R,7aS)-2-fluorohexahydro-1H-pyrrolizin-7a-yl)methoxy)-5,6,7,8-tetrahydropyrido[3,4-d]pyrimidin-4-yl)(methyl)amino)pyrrolidin-1-yl)-3-(3-(1-methylcyclopropyl)-1,2,4-oxadiazol-5-yl)prop-2-en-1-one] | 10 to 100
CN(c1nc(OCC23CCCN2CCC3)nc2c(F)c(-c3cccc4cccc(Cl)c34)ncc12)[C@@H]1CCN(C(=O)/C=C/c2cn(C)cn2)C1 [Example 115, (R,E)-1-(3-((7-(8-chloronaphthalen-1-yl)-8-fluoro-2-((hexahydro-1H-pyrrolizin-7a-yl)methoxy)pyrido[4,3-d]pyrimidin-4-yl)(methyl)amino)pyrrolidin-1-yl)-3-(1-methyl-1H-imidazol-4-yl)prop-2-en-1-one] | > 500
